Assay results from patent publication US6255250A, “Plant growth regulators in pyrrolidone solvents” (BASF Corporation, priority 1997, dated 2001).
Values belong to the compound of their own block, whether it stands above or below them.

Experiments:
cotton plants = settings: approximately 62.5 to 500 g ai/ha assuming spray volume 500 l/ha; cited from earlier work
peach = settings: low rate (0.08 mM); cited from earlier work
horticultural plants = settings: several horticultural plants; cited from earlier work
Cotton = format: in vivo; settings: mc column, mepiquat chloride 12 g/ha
Text: This resulting composition was mixed with PIX® mepiquat chloride plant growth regulator (BASF Corporation) such that the mepiquat chloride was applied to cotton in field studies at a rate of 12 g/ha and the {[(isopropylidene)-amino]oxy}-acetic acid-2-(methoxy)-2-oxoethyl ester contained in the solvent with an emulsifier system was applied at 1 and 10 g/ha.

physchem = settings: water
Experimental: Formulations of the present invention were prepared as described in Example 1 and were tested for hydrolysis half-life.

Structure (SMILES): NCCOC=CC(N)C(=O)O (stereo not drawn) [aminoethoxyvinylglycine]
- improvement in a plant growth factor with increasing rate (cotton plants): As the rate of AVG treatment increased, so did the improvement

Structure (SMILES): O=P(O)(O)CCCl [ethephon]
- effect on bloom and side effects in peach (peach): significantly delayed bloom in peach and reduced side effects
- effect on yields and hardiness (horticultural plants): increased the yields and hardiness of several horticultural plants

Structure (SMILES): C[N+]1(C)CCCCC1 [mepiquat chloride]
- Frequency of Positive Yield (Cotton): 38%
- Relative Yield (% compared to untreated) (Cotton): 102%

- half-life (physchem): 12 to 21 days
Structure (SMILES): COC(=O)COC(=O)CON=C(C)C [{[(isopropylidene)-amino]oxy}-acetic acid-2-(methoxy)-2-oxoethyl ester]
